This is an account of results in patent US20160030499A1, “Adaptogenic Compositions And Method For Production Thereof” (Rubikon Ltd., priority 2014, published 2016).

This data set is described as follows: Storage stability of quantitated schisandrin (HPLC). In kind it is physicochemical. From the text:
A high performance liquid chromatography (HPLC) method was developed to quantitate the schisandrin compound contained in the Schisandra chinensis extract. Schisandrin (≧98%) obtained from Sigma-Aldrich was used as a control. The content of the schisandrin compound in the Schisandra chinensis seed oil extracts ranged from about 4.2 to 4.9% depending on the extraction for example, prior to standardization.
A High-performance liquid chromatography method has been developed to quantify the schisandrin in the extract:
Chromatographic Conditions: • Column: Agilent Zorbax Eclipse XDB-C 18, 150 mm length and 4.6 mm internal diameter filled with octadecylsilyl silica gel, 5 micron particle size; • Flow rate: 1 ml/min; • Detection at wavelength: 250 nm; • Volume of injection sample: 10 μl; • Column temperature: 25° C.

In the case of `COc1cc2c(c(OC)c1OC)-c1c(cc(OC)c(OC)c1OC)C[C@](C)(O)[C@@H](C)C2` [schisandrin compound, schisandrin], the “Storage stability of quantitated amount of schisandrin” value is, setting by setting: (12 months, 30 degrees Celsius and 65% relative humidity) “stable and unchanged”; (24 months, 25 degrees Celsius and 60% relative humidity) “stable and unchanged”; (six months, 40 degrees Celsius and 75% relative humidity) “stable and unchanged”. Also, the “Storage stability in other studies using the formulation tested in Example 1” value (conditions not stated) is listed as “stable for at least or about one year”.
